Drawing on patent US20230265151A1, “GIP/GLP1 CO-AGONIST COMPOUNDS” (priority 2020, published 2023), this text covers Emax and EC50 for four molecules.

Where two headings read alike, the source gives them in different places. *1 amine or outer side, *2 acyl side, *3 side chain or, on linkers, in order; H or OH if unused. Where a SMILES comes first, the peptide text is derived from it. Side-chain parts run from the residue outwards. [ ]: non-standard residue; d: D form. The star is where a group is joined. γGlu = O=C(O)[C@H](CCC(=O)[*:2])N[*:1]; C14 diacid = O=C(O)CCCCCCCCCCCCC(=O)*; αMeY = C[C@](N)(Cc1ccc(O)cc1)C(=O)O; αMeF = C[C@](N)(Cc1ccccc1)C(=O)O; αMeL = CC(C)C[C@](C)(N)C(=O)O; Orn = NCCC[C@H](N)C(=O)O; AEEA = NCCOCCOCC(=O)O; Aib = CC(C)(N)C(=O)O

Assay type in all cases: cell-based
For one assay, the target named is T1, hGIPR (Homo sapiens, UniProt P48546).
T1 construct: expressed in transfected cells
T1 sequence (P48546 22-466): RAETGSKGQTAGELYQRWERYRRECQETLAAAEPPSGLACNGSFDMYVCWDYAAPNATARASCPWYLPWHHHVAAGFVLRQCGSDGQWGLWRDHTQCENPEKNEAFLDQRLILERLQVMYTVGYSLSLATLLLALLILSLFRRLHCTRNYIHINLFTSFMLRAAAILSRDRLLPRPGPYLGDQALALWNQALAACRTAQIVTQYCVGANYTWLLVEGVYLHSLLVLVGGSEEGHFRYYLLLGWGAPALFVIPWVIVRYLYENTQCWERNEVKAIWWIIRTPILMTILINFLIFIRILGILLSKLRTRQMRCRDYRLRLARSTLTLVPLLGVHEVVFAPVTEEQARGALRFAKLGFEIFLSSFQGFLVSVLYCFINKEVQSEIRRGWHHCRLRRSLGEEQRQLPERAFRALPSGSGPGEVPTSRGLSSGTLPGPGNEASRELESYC
Kind of assay: Functional cAMP formation (HTRF) in HEK-293 clonal cells expressing hGIPR, 0.1% bovine casein, without or with 1.0% human serum albumin. Summed up: (§1)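 Cells were stimulated with peptide for 30 min at 37° C, then intracellular cAMP was measured by competitive HTRF (665/620 nm ratio) and converted to nM using a cAMP standard curve. Relative EC50 and Emax came from four-parameter logistic fits of percent maximal response against peptide concentration.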
On the technique in general: cAMP levels reflect the balance of adenylyl cyclase and phosphodiesterase activity.

The target of another assay is hGLP-1R (Homo sapiens, UniProt P43220). Kind of assay: Functional cAMP formation (HTRF) in HEK-293 clonal cells expressing hGLP-1R, 0.1% bovine casein, without or with 1.0% human serum albumin. Further details: expressed in transfected cells. As to conditions: for EC50: cAMP, 0.1% bovine casein (no human serum albumin), geometric mean. Summed up:
as §1

Another assay deals with T2, hGCGR (Homo sapiens, UniProt P47871).
T2 construct: expressed in transfected cells
T2 sequence (P47871 26-477): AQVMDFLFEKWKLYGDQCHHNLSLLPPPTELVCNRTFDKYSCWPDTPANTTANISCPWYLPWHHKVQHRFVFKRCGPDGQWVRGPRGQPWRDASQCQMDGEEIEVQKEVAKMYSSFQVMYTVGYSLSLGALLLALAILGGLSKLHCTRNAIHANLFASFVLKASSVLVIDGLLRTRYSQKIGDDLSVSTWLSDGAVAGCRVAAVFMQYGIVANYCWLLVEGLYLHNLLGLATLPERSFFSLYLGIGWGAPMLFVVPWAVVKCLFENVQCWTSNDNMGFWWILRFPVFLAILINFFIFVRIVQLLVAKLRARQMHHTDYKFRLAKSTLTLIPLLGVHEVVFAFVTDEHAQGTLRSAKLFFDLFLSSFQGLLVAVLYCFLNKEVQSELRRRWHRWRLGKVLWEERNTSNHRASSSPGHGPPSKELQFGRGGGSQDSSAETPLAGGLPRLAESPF
Kind of assay: Functional cAMP formation (HTRF) in HEK-293 clonal cells expressing hGCGR, 0.1% bovine casein, without or with 1.0% human serum albumin. In outline: as §1

Where [1] appears, read: HEK293, read-out: hGIPR Emax, % ± SEM, cAMP, 37° C., 0.1% bovine casein, percent of maximal response to GIP(1-42)NH2, arithmetic mean.
The mark [2] stands for this setting: HEK293, read-out: hGLP-1R Emax, % ± SEM, cAMP, 37° C., 0.1% bovine casein, percent of maximal response to GLP-1(7-36)NH2, arithmetic mean.
Setting [3] is: hGCGR EC50, nM (SEM, n), cAMP, 37° C., 0.1% bovine casein (no human serum albumin), geometric mean.
[4] abbreviates: HEK293, percent of maximal response to GLP-1(7-36)NH2, 37° C., 0.1% bovine casein, arithmetic mean, read-out: hGLP-1R Emax, % ± SEM.
The mark [5] stands for this setting: cAMP, incubated at 37° C., 0.1% bovine casein (no human serum albumin), geometric mean, read-out: hGCGR EC50, nM (SEM, n).

Sequence of hGLP-1R (P43220 24-463): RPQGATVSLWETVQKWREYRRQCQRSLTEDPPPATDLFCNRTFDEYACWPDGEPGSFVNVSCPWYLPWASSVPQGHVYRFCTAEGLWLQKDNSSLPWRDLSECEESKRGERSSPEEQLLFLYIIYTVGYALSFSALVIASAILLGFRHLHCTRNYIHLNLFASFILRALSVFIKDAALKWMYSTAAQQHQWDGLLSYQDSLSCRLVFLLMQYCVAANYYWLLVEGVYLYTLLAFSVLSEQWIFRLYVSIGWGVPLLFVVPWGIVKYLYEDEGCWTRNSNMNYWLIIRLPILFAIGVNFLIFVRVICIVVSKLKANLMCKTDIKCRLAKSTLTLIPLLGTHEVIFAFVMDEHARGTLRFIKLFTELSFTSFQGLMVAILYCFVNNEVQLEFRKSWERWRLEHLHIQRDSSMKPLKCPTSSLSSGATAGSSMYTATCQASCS

One may read the Emax as the greatest response seen or fitted, relative to the assay's reference. As usually defined, the EC50 is the concentration needed to bring the measured effect to its halfway point. For `CC[C@H](C)[C@H](NC(=O)[C@H](CC(C)C)NC(=O)[C@](C)(Cc1ccc(O)cc1)NC(=O)[C@@H](CCC(=O)O)NC(=O)[C@@H](NC(=O)[C@H](Cc1ccccc1)NC(=O)[C@H](CCCCNC(=O)COCCOCCNC(=O)COCCOCCNC(=O)CCCCCCCCCOc1ccc(C(=O)O)cc1)NC(=O)C(C)(C)NC(=O)[C@H](CCC(N)=O)NC(=O)[C@H](C)NC(=O)[C@H](CCCCNC(=O)COCCOCCNC(=O)COCCOCCNC(=O)CCCCCCCCCOc1ccc(C(=O)O)cc1)NC(=O)[C@H](CCCN)NC(=O)[C@H](CC(=O)O)NC(=O)[C@H](CC(C)C)NC(=O)[C@](C)(CC(C)C)NC(=O)[C@@H](NC(=O)C(C)(C)NC(=O)[C@H](Cc1ccncc1)NC(=O)[C@H](CC(=O)O)NC(=O)[C@H](CO)NC(=O)[C@@H](NC(=O)[C@](C)(Cc1ccccc1F)NC(=O)[C@@H](NC(=O)CNC(=O)[C@H](CCC(=O)O)NC(=O)C(C)(C)NC(=O)[C@@H](N)Cc1ccc(O)cc1)[C@@H](C)O)[C@@H](C)O)[C@@H](C)CC)[C@@H](C)CC)C(=O)N[C@@H](CCC(=O)O)C(=O)NCC(=O)NCC(=O)N1CCC[C@H]1C(=O)N[C@@H](CO)C(=O)N[C@@H](CO)C(=O)NCC(=O)N[C@@H](C)C(=O)N1CCC[C@H]1C(=O)N1CCC[C@H]1C(=O)N1CCC[C@H]1C(=O)N[C@@H](CO)C(N)=O` [Example 392], the maximum response (Emax) on hGIPR (HEK293, read-out: hGIPR Emax, % ± SEM, cAMP, 37° C., 0.1% bovine casein and 1.0% human serum albumin, percent of maximal response to GIP(1-42)NH2) was 85.7%; at hGIPR (setting [1]), 94.4%; at hGLP-1R (setting [2]) it was 97.9%. In addition, the EC50 is 0.0107 nM at hGIPR (hGIPR EC50, nM (SEM, n), cAMP, 37° C., 0.1% bovine casein (no human serum albumin), geometric mean); 0.521 nM at hGLP-1R (hGLP-1R EC50, nM (SEM, n), 37° C.); above 9950 nM at hGCGR (setting [3]); above 9950 nM at hGCGR (hGCGR EC50, nM (SEM, n), cAMP, 37° C., 0.1% bovine casein and 1.0% human serum albumin, geometric mean (SEM, n)).

`CC[C@H](C)[C@H](NC(=O)[C@H](CCCN)NC(=O)[C@H](CC(=O)O)NC(=O)[C@H](CC(C)C)NC(=O)[C@](C)(CC(C)C)NC(=O)[C@@H](NC(=O)[C@H](CO)NC(=O)[C@H](Cc1ccncc1)NC(=O)[C@H](CC(=O)O)NC(=O)[C@H](CO)NC(=O)[C@@H](NC(=O)[C@](C)(Cc1ccccc1F)NC(=O)[C@@H](NC(=O)CNC(=O)[C@H](CCC(=O)O)NC(=O)C(C)(C)NC(=O)[C@@H](N)Cc1ccc(O)cc1)[C@@H](C)O)[C@@H](C)O)[C@@H](C)CC)C(=O)N[C@@H](C)C(=O)N[C@@H](CCC(N)=O)C(=O)NC(C)(C)C(=O)N[C@@H](CCCCNC(=O)COCCOCCNC(=O)COCCOCCNC(=O)CC[C@H](NC(=O)CCCCCCCCCCOc1ccc(C(=O)O)cc1)C(=O)O)C(=O)N[C@@H](Cc1ccccc1)C(=O)N[C@H](C(=O)N[C@H](CCC(=O)O)C(=O)N[C@@](C)(Cc1ccc(O)cc1)C(=O)N[C@@H](CC(C)C)C(=O)N[C@H](C(=O)N[C@@H](CCCCNC(=O)COCCOCCNC(=O)COCCOCCNC(=O)CC[C@H](NC(=O)CCCCCCCCCCOc1ccc(C(=O)O)cc1)C(=O)O)C(=O)NCC(=O)NCC(=O)N1CCC[C@H]1C(=O)N[C@@H](CO)C(=O)N[C@@H](CO)C(=O)NCC(=O)N[C@@H](C)C(=O)N1CCC[C@H]1C(=O)N1CCC[C@H]1C(=O)N1CCC[C@H]1C(=O)N[C@@H](CO)C(N)=O)[C@@H](C)CC)[C@@H](C)CC` [Example 287]: the Emax at hGIPR (HEK293, read-out: hGIPR Emax, % ± SEM, 0.1% bovine casein and 1.0% human serum albumin, 37° C., percent of maximal response to GIP(1-42)NH2) is 98.9%; on hGIPR (setting [1]) it was 93%; on hGLP-1R (setting [2]) it was 97.2%. For the same molecule, the EC50 on hGCGR (hGCGR EC50, nM (SEM, n), 0.1% bovine casein and 1.0% human serum albumin, 37° C., geometric mean) was above 9950 nM; on hGCGR (setting [3]), above 9950 nM.

With `CC[C@H](C)[C@H](NC(=O)[C@H](CCCN)NC(=O)[C@H](CC(=O)O)NC(=O)[C@H](CC(C)C)NC(=O)[C@](C)(CC(C)C)NC(=O)[C@@H](NC(=O)[C@H](CO)NC(=O)[C@H](Cc1ccncc1)NC(=O)[C@H](CC(=O)O)NC(=O)[C@H](CO)NC(=O)[C@@H](NC(=O)[C@](C)(Cc1ccccc1F)NC(=O)[C@@H](NC(=O)CNC(=O)[C@H](CCC(=O)O)NC(=O)C(C)(C)NC(=O)[C@@H](N)Cc1ccc(O)cc1)[C@@H](C)O)[C@@H](C)O)[C@@H](C)CC)C(=O)N[C@@H](C)C(=O)N[C@@H](CCC(N)=O)C(=O)NC(C)(C)C(=O)N[C@@H](CCCCNC(=O)COCCOCCNC(=O)COCCOCCNC(=O)COCCOCCNC(=O)CC[C@H](NC(=O)CCCCCCCCCCCCC(=O)O)C(=O)O)C(=O)N[C@@H](Cc1ccccc1)C(=O)N[C@H](C(=O)N[C@H](CCC(=O)O)C(=O)N[C@@](C)(Cc1ccc(O)cc1)C(=O)N[C@@H](CC(C)C)C(=O)N[C@H](C(=O)N[C@@H](CCCCNC(=O)COCCOCCNC(=O)COCCOCCNC(=O)COCCOCCNC(=O)CC[C@H](NC(=O)CCCCCCCCCCCCC(=O)O)C(=O)O)C(=O)NCC(=O)NCC(=O)N1CCC[C@H]1C(=O)N[C@@H](CO)C(=O)N[C@@H](CO)C(=O)NCC(=O)N[C@@H](C)C(=O)N1CCC[C@H]1C(=O)N1CCC[C@H]1C(=O)N1CCC[C@H]1C(=O)N[C@@H](CO)C(N)=O)[C@@H](C)CC)[C@@H](C)CC` [Example 227], the Emax on hGIPR (HEK293, 0.1% bovine casein and 1.0% human serum albumin, 37° C., percent of maximal response to GIP(1-42)NH2, read-out: hGIPR Emax, % ± SEM) came to 76.1%; on hGLP-1R (HEK293, 0.1% bovine casein and 1.0% human serum albumin, 37° C., percent of maximal response to GLP-1(7-36)NH2, read-out: hGLP-1R Emax, % ± SEM), 111%; at hGLP-1R (setting [4]) it was 96.1%. The EC50 on hGLP-1R (incubated at 37° C., read-out: hGLP-1R EC50, nM (SEM, n)) was 1.22 nM; on hGCGR (0.1% bovine casein and 1.0% human serum albumin, 37° C., geometric mean, read-out: hGCGR EC50, nM (SEM, n)), above 9950 nM; on hGCGR (setting [5]), above 9950 nM.

In the case of `CC[C@H](C)[C@H](NC(=O)[C@H](CC(C)C)NC(=O)[C@](C)(Cc1ccc(O)cc1)NC(=O)[C@@H](CCC(=O)O)NC(=O)[C@@H](NC(=O)[C@H](Cc1ccccc1)NC(=O)[C@H](CCC(=O)O)NC(=O)C(C)(C)NC(=O)[C@H](CCC(N)=O)NC(=O)[C@H](C)NC(=O)[C@H](CCCCNC(=O)COCCOCCNC(=O)COCCOCCNC(=O)CC[C@H](NC(=O)CCCCCCCCCCCCC(=O)O)C(=O)O)NC(=O)[C@H](CCCN)NC(=O)[C@H](CC(=O)O)NC(=O)[C@H](CC(C)C)NC(=O)[C@](C)(CC(C)C)NC(=O)[C@@H](NC(=O)[C@H](CO)NC(=O)[C@@H](NC(=O)[C@H](CC(=O)O)NC(=O)[C@H](CO)NC(=O)[C@@H](NC(=O)[C@](C)(Cc1ccccc1)NC(=O)[C@@H](NC(=O)CNC(=O)[C@H](CCC(=O)O)NC(=O)C(C)(C)NC(=O)[C@@H](N)Cc1ccc(O)cc1)[C@@H](C)O)[C@@H](C)O)C(C)C)[C@@H](C)CC)[C@@H](C)CC)C(=O)N[C@@H](CCC(=O)O)C(=O)NCC(=O)NCC(=O)N[C@@H](CCCCNC(=O)COCCOCCNC(=O)COCCOCCNC(=O)CC[C@H](NC(=O)CCCCCCCCCCCCC(=O)O)C(=O)O)C(=O)N[C@@H](CO)C(=O)N[C@@H](CO)C(=O)NCC(=O)N[C@@H](C)C(=O)N1CCC[C@H]1C(=O)N1CCC[C@H]1C(=O)N1CCC[C@H]1C(=O)N[C@@H](CO)C(N)=O` [Example 179] (H-Y[Aib]EGT[αMeF]TSDVSI[αMeL]LD[Orn]K([AEEA-AEEA-γGlu-C14 diacid])AQ[Aib]EFI[dE][αMeY]LIEGGK([AEEA-AEEA-γGlu-C14 diacid])SSGAPPPS-NH2), the Emax on hGIPR (HEK293, percent of maximal response to GIP(1-42)NH2, 37° C., 0.1% bovine casein, arithmetic mean, read-out: hGIPR Emax, % ± SEM) was 91%; at hGLP-1R (setting [4]), 99%. For the same molecule, the EC50 at hGCGR (setting [5]) was above 9950 nM.
